Laboratory results as given in ChEMBL document CHEMBL5523693, “Exploration of the P1 residue in 3CL protease inhibitors leading to the discovery of a 2-tetrahydrofuran P1 replacement” (Bioorg Med Chem, 2024).

test system: not listed separately; test: cells; conditions: Betacoronavirus 1, MRC5, read-out: pEC50 (converted)
Description: Antiviral activity against SARS-CoV-2 OC43 infected in human MRC5 cells assessed as inhibition of bacterial growth

Row | SMILES | EC50
1 | CC(C)C[C@H](NC(=O)[C@H](Cc1ccc(F)cc1)NC(=O)OCc1ccccc1)C(=O)N[C@H](C=O)CC[S+](C)[O-] (mixture of isomers) | > 50.1 µM
2 | CC(C)C[C@H](NC(=O)[C@H](Cc1ccc(F)cc1)NC(=O)OCc1ccccc1)C(=O)NC(C=O)CC1CCCC1 (mixture of isomers) | 1 µM
3 | CC(C)C[C@H](NC(=O)[C@H](Cc1ccc(F)cc1)NC(=O)OCc1ccccc1)C(=O)NC(C=O)CC1CCCO1 (mixture of isomers) | 0.316 µM
4 | COCCC(C=O)NC(=O)[C@H](CC(C)C)NC(=O)[C@H](Cc1ccc(F)cc1)NC(=O)OCc1ccccc1 (mixture of isomers) | 1.26 µM

target: Replicase polyprotein 1ab (Severe acute respiratory syndrome coronavirus 2) (UniProt P0DTD1); test: Binding affinity to SARS-CoV-2 3CL protease assessed as monophasic dissociation rate by measuring half life by jump dilution assay; conditions: not given

Row | SMILES | T1/2
5 | CC(C)C[C@H](NC(=O)[C@H](Cc1ccc(F)cc1)NC(=O)OCc1ccccc1)C(=O)N[C@@H](C[C@@H]1CCNC1=O)C(=O)C(=O)NC(C)C | 18 min
6 | CC(C)C[C@H](NC(=O)[C@H](Cc1ccc(F)cc1)NC(=O)OCc1ccccc1)C(=O)N[C@H](/C=C1\CCOC1=O)C[C@H]1CCCO1 | 12 min
7 | CC(C)C[C@H](NC(=O)[C@H](Cc1ccc(F)cc1)NC(=O)OCc1ccccc1)C(=O)NC(/C=C1\CCOC1=O)CC1CCCO1 (mixture of isomers) | 18 min
8 | CC(C)C[C@H](NC(=O)[C@H](Cc1ccc(F)cc1)NC(=O)OCc1ccccc1)C(=O)NC(CC1CCCO1)C(=O)C(=O)NC(C)C (mixture of isomers) | 12 min
9 | CC(C)C[C@H](NC(=O)[C@H](Cc1ccc(F)cc1)NC(=O)OCc1ccccc1)C(=O)NC(C=O)Cc1ccco1 (mixture of isomers) | < 12 min
10 | CC(C)C[C@H](NC(=O)[C@H](Cc1ccc(F)cc1)NC(=O)OCc1ccccc1)C(=O)NC(C=O)CC1CCCC1 (mixture of isomers) | < 12 min
11 | CC(C)C[C@H](NC(=O)[C@H](Cc1ccc(F)cc1)NC(=O)OCc1ccccc1)C(=O)NC(C=O)CC1CCCCO1 (mixture of isomers) | 18 min
12 | COCCC(C=O)NC(=O)[C@H](CC(C)C)NC(=O)[C@H](Cc1ccc(F)cc1)NC(=O)OCc1ccccc1 (mixture of isomers) | < 12 min

target: Replicase polyprotein 1ab (Severe acute respiratory syndrome coronavirus 2) (UniProt P0DTD1); test: Binding affinity to SARS-CoV-2 3CL protease assessed as biphasic dissociation rate by measuring half life by jump dilution assay; conditions: not given

Row | SMILES | T1/2
13 | CC(C)C[C@H](NC(=O)[C@H](Cc1ccc(F)cc1)NC(=O)OCc1ccccc1)C(=O)N[C@H](/C=C1\CCOC1=O)C[C@@H]1CCNC1=O | 468 min
14 | CC(C)C[C@H](NC(=O)[C@H](Cc1ccc(F)cc1)NC(=O)OCc1ccccc1)C(=O)N[C@H](/C=C1\CCOC1=O)C[C@@H]1CCCO1 | 660 min
15 | CC(C)C[C@H](NC(=O)[C@H](Cc1ccc(F)cc1)NC(=O)OCc1ccccc1)C(=O)N[C@H](C=O)CC[S+](C)[O-] (mixture of isomers) | 660 min
16 | CC(C)C[C@H](NC(=O)[C@H](Cc1ccc(F)cc1)NC(=O)OCc1ccccc1)C(=O)NC(C=O)CC1CCCO1 (mixture of isomers) | 660 min

test system: not listed separately; test: Permeability of compound in MDCK cells; format: ADME, cell-based, Canis lupus familiaris; conditions: dog, read-out: permeability

Row | SMILES | Papp
17 | CC(C)C[C@H](NC(=O)[C@H](Cc1ccc(F)cc1)NC(=O)OCc1ccccc1)C(=O)NC(C=O)CC1CCCO1 (mixture of isomers) | 95.6 nm/s

test system: SARS-CoV-2; test: microbe, parasite or virus in culture; conditions: Severe acute respiratory syndrome coronavirus 2, Vero, read-out: pEC50 (converted)
Description: Antiviral activity against SARS-CoV-2 infected in african green monkey Vero cells assessed as virus-induced cell death

Row | SMILES | EC50
18 | CC(C)C[C@H](NC(=O)[C@H](Cc1ccc(F)cc1)NC(=O)OCc1ccccc1)C(=O)N[C@H](/C=C1\CCOC1=O)C[C@@H]1CCCO1 | 15.8 µM
19 | CC(C)C[C@H](NC(=O)[C@H](Cc1ccc(F)cc1)NC(=O)OCc1ccccc1)C(=O)N[C@H](/C=C1\CCOC1=O)C[C@H]1CCCO1 | 15.8 µM
20 | CC(C)C[C@H](NC(=O)[C@H](Cc1ccc(F)cc1)NC(=O)OCc1ccccc1)C(=O)NC(C=O)Cc1ccco1 (mixture of isomers) | 5.01 µM
21 | CC(C)C[C@H](NC(=O)[C@H](Cc1ccc(F)cc1)NC(=O)OCc1ccccc1)C(=O)N[C@H](C=O)CC[S+](C)[O-] (mixture of isomers) | 7.94 µM
22 | CC(C)C[C@H](NC(=O)[C@H](Cc1ccc(F)cc1)NC(=O)OCc1ccccc1)C(=O)NC(C=O)CC1CCCCO1 (mixture of isomers) | 2 µM
23 | CC(C)C[C@H](NC(=O)[C@H](Cc1ccc(F)cc1)NC(=O)OCc1ccccc1)C(=O)NC(C=O)CC1CCCO1 (mixture of isomers) | 2.51 µM
24 | COCCC(C=O)NC(=O)[C@H](CC(C)C)NC(=O)[C@H](Cc1ccc(F)cc1)NC(=O)OCc1ccccc1 (mixture of isomers) | 1.58 µM

target: Replicase polyprotein 1ab (Severe acute respiratory syndrome coronavirus 2, UniProt P0DTD1); test: Inhibition of SARS-CoV-2 3CL protease by FRET assay; conditions: not given

Row | SMILES | IC50 | Ki
25 | CC(C)C[C@H](NC(=O)[C@H](Cc1ccc(F)cc1)NC(=O)OCc1ccccc1)C(=O)N[C@@H](/C=C1\CCOC1=O)C[C@@H]1CCCO1 | > 1 µM | –
26 | CC(C)C[C@H](NC(=O)[C@H](Cc1ccc(F)cc1)NC(=O)OCc1ccccc1)C(=O)N[C@H](/C=C1\CCOC1=O)C[C@@H]1CCNC1=O | 0.00158 µM | –
27 | CC(C)C[C@H](NC(=O)[C@H](Cc1ccc(F)cc1)NC(=O)OCc1ccccc1)C(=O)N[C@@H](C[C@@H]1CCNC1=O)C(=O)C(=O)NC(C)C | 0.00501 µM | 0.00501 µM
28 | CC(C)C[C@H](NC(=O)[C@H](Cc1ccc(F)cc1)NC(=O)OCc1ccccc1)C(=O)N[C@@H](/C=C1\CCOC1=O)C[C@H]1CCCO1 | > 1 µM | –
29 | CC(C)C[C@H](NC(=O)[C@H](Cc1ccc(F)cc1)NC(=O)OCc1ccccc1)C(=O)N[C@H](/C=C1\CCOC1=O)C[C@@H]1CCCO1 | 0.0398 µM | –
30 | CC(C)C[C@H](NC(=O)[C@H](Cc1ccc(F)cc1)NC(=O)OCc1ccccc1)C(=O)N[C@H](/C=C1\CCOC1=O)C[C@H]1CCCO1 | 0.126 µM | –
31 | CC(C)C[C@H](NC(=O)[C@H](Cc1ccc(F)cc1)NC(=O)OCc1ccccc1)C(=O)NC(/C=C1\CCOC1=O)CC1CCCO1 (mixture of isomers) | 0.158 µM | –
32 | CC(C)C[C@H](NC(=O)[C@H](Cc1ccc(F)cc1)NC(=O)OCc1ccccc1)C(=O)NC(CC1CCCO1)C(=O)C(=O)NC(C)C (mixture of isomers) | 0.2 µM | –
33 | CC(C)C[C@H](NC(=O)[C@H](Cc1ccc(F)cc1)NC(=O)OCc1ccccc1)C(=O)NC(C=O)Cc1ccco1 (mixture of isomers) | 0.126 µM | –
34 | CC(C)C[C@H](NC(=O)[C@H](Cc1ccc(F)cc1)NC(=O)OCc1ccccc1)C(=O)N[C@H](C=O)CC[S+](C)[O-] (mixture of isomers) | 0.00794 µM | –
35 | CC(C)C[C@H](NC(=O)[C@H](Cc1ccc(F)cc1)NC(=O)OCc1ccccc1)C(=O)NC(C=O)CC1CCCC1 (mixture of isomers) | 0.0794 µM | –
36 | CC(C)C[C@H](NC(=O)[C@H](Cc1ccc(F)cc1)NC(=O)OCc1ccccc1)C(=O)NC(C=O)CC1CCCCO1 (mixture of isomers) | 0.0398 µM | –
37 | CC(C)C[C@H](NC(=O)[C@H](Cc1ccc(F)cc1)NC(=O)OCc1ccccc1)C(=O)NC(C=O)CC1CCCO1 (mixture of isomers) | 0.00126 µM | –
38 | COCCC(C=O)NC(=O)[C@H](CC(C)C)NC(=O)[C@H](Cc1ccc(F)cc1)NC(=O)OCc1ccccc1 (mixture of isomers) | 0.0316 µM | –

test system: not listed separately; test: Cytotoxicity against human MRC5 cells infected with […] inhibition of cell growth; format: toxicity, cell-based; conditions: not given

Row | SMILES | CC50
39 | CC(C)C[C@H](NC(=O)[C@H](Cc1ccc(F)cc1)NC(=O)OCc1ccccc1)C(=O)N[C@H](C=O)CC[S+](C)[O-] (mixture of isomers) | > 50.1 µM
40 | CC(C)C[C@H](NC(=O)[C@H](Cc1ccc(F)cc1)NC(=O)OCc1ccccc1)C(=O)NC(C=O)CC1CCCC1 (mixture of isomers) | 10 µM
41 | CC(C)C[C@H](NC(=O)[C@H](Cc1ccc(F)cc1)NC(=O)OCc1ccccc1)C(=O)NC(C=O)CC1CCCCO1 (mixture of isomers) | > 50.1 µM
42 | CC(C)C[C@H](NC(=O)[C@H](Cc1ccc(F)cc1)NC(=O)OCc1ccccc1)C(=O)NC(C=O)CC1CCCO1 (mixture of isomers) | 10 µM
43 | COCCC(C=O)NC(=O)[C@H](CC(C)C)NC(=O)[C@H](Cc1ccc(F)cc1)NC(=O)OCc1ccccc1 (mixture of isomers) | 10 µM
